Results from PubChem BioAssay AID248 (DTP/NCI, 2004).
Several values for one entry are separate records, joined by “and”; a condition that tells them apart may be missing. Equal entries are not always repeated. Toxic doses and inconclusive results are not listed.

Tested on: L1210 leukemia ip in BDF1 mice, survival T/C
Experiment: NCI In Vivo Anticancer Drug Screen. Data for tumor model L1210 Leukemia (intraperitoneal) in B6D2F1 (BDF1) mice
Conditions: endpoint: mean survival time, higher = longer survival
Method in brief: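 Each compound was tested against a transplantable tumor grown in mice. The endpoint was survival, with treated animals benchmarked against vehicle controls as a simple ratio.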

[1] = dose: 100.0 mg/kg/injection, schedule: Q01DX001 (ip), vehicle: Klucel (hydroxypropylcellulose) (HPC)
[2] = dose: 200.0 mg/kg/injection, schedule: Q01DX001 (ip), vehicle: Klucel (hydroxypropylcellulose) (HPC)
[3] = dose: 400.0 mg/kg/injection, schedule: Q01DX001 (ip), vehicle: Klucel (hydroxypropylcellulose) (HPC)
[4] = dose: 100.0 mg/kg/injection, schedule: Q01DX009 (ip), vehicle: Klucel (hydroxypropylcellulose) (HPC)
[5] = dose: 200.0 mg/kg/injection, schedule: Q01DX009 (ip), vehicle: Klucel (hydroxypropylcellulose) (HPC)
[6] = dose: 400.0 mg/kg/injection, schedule: Q01DX009 (ip), vehicle: Klucel (hydroxypropylcellulose) (HPC)
[7] = dose: 100.0 mg/kg/injection, schedule: Q01DX001 (ip), vehicle: saline
[8] = dose: 200.0 mg/kg/injection, schedule: Q01DX001 (ip), vehicle: saline
[9] = dose: 400.0 mg/kg/injection, schedule: Q01DX001 (ip), vehicle: saline

In the case of `O=S(=O)(Nc1cc(N2CCOCC2)c(O)c2ccccc12)c1ccccc1`, the T/C (dose: 25.0 mg/kg/injection, schedule: Q01DX001 (ip), vehicle: saline with Tween-80) is reported as 95 % of control, the T/C (dose: 50.0 mg/kg/injection, schedule: Q01DX001 (ip), vehicle: saline with Tween-80) is reported as 97 % of control and the T/C (dose: 100.0 mg/kg/injection, schedule: Q01DX001 (ip), vehicle: saline with Tween-80) is reported as 94 % of control.
With `CC1(C)C=C2OC(=O)CCC2(C)CC1` (configuration not stated) the T/C [1] was 106 % of control, the T/C (dose: 100.0 mg/kg/injection, schedule: Q01DX009 (ip), vehicle: saline with Tween-80) was 109 % of control and the T/C [2] was 106 % of control. The T/C (dose: 200.0 mg/kg/injection, schedule: Q01DX009 (ip), vehicle: saline with Tween-80) was 112 % of control, the T/C [3] was 96 % of control and the T/C (dose: 400.0 mg/kg/injection, schedule: Q01DX009 (ip), vehicle: saline with Tween-80) was 107 % of control.
`CCCCCCCCC(C)NCCOC(=O)c1ccc([N+](=O)[O-])cc1` (configuration not stated) was tested, and the T/C (dose: 75.0 mg/kg/injection, schedule: Q01DX001 (ip), vehicle: other) was 89 % of control and the T/C (dose: 150.0 mg/kg/injection, schedule: Q01DX001 (ip), vehicle: other) was 89 % of control.
With `Nc1ccccc1Sc1c(N)cc2c3c(cccc13)C(=O)NC2=O` the T/C [4] was 90 % of control, the T/C [5] was 90 % of control and the T/C [6] was 94 % of control.
With `CCCN(CCC)C(=O)C(=O)OCC` the T/C (dose: 6.25 mg/kg/injection, schedule: Q04DX003 (ip), vehicle: saline with Tween-80) was 102 % of control, the T/C (dose: 12.5 mg/kg/injection, schedule: Q04DX003 (ip), vehicle: saline with Tween-80) was 94 % of control and the T/C (dose: 25.0 mg/kg/injection, schedule: Q04DX003 (ip), vehicle: saline with Tween-80) was 98 % of control.
With `O=C1c2ccccc2-c2c(O)cccc21` the T/C [1] was 94 % of control, the T/C [2] was 100 % of control and the T/C [3] was 96 % of control.
In the case of `COCC(O)C(OC)C(OC)C(C=O)NC(=O)NCCCl` (configuration not stated), the T/C [1] is reported as 102 % of control, the T/C [2] is reported as 103 % of control and the T/C [3] is reported as 100 % of control.
`NC(=O)c1cn[nH]c1/N=N/N(CCF)CCF` was tested, and the T/C (dose: 9.5 mg/kg/injection, schedule: Q01DX001 (ip), vehicle: other) was 111 % of control, the T/C (dose: 10.0 mg/kg/injection, schedule: Q01DX009 (ip), vehicle: other) was 119 % of control and the T/C (dose: 19.0 mg/kg/injection, schedule: Q01DX001 (ip), vehicle: other) was 124 % of control.
`CC(C)(C)C1Sc2nc3ccccc3n2C1=O` (configuration not stated) was tested, and the T/C (dose: 12.5 mg/kg/injection, schedule: Q01DX009 (ip), vehicle: Klucel (hydroxypropylcellulose) (HPC)) was 101 % of control, the T/C (dose: 12.5 mg/kg/injection, schedule: Q04DX003 (ip), vehicle: Klucel (hydroxypropylcellulose) (HPC)) was 98 % of control and the T/C (dose: 25.0 mg/kg/injection, schedule: Q01DX009 (ip), vehicle: Klucel (hydroxypropylcellulose) (HPC)) was 97 % of control. The T/C (dose: 25.0 mg/kg/injection, schedule: Q04DX003 (ip), vehicle: Klucel (hydroxypropylcellulose) (HPC)) was 92 % of control, the T/C (dose: 50.0 mg/kg/injection, schedule: Q01DX009 (ip), vehicle: Klucel (hydroxypropylcellulose) (HPC)) was 96 % of control and the T/C (dose: 50.0 mg/kg/injection, schedule: Q04DX003 (ip), vehicle: Klucel (hydroxypropylcellulose) (HPC)) was 92 % of control.
With `N#Cc1ccc(NC(=O)NNC(=O)CCCC(=O)NNC(=O)Nc2ccc(C#N)cc2)cc1` the T/C (dose: 50.0 mg/kg/injection, schedule: Q01DX001 (ip), vehicle: saline) was 95 % of control, the T/C [7] was 97 % of control and the T/C [8] was 101 % of control. For the same compound, the T/C [9] was 95 % of control.
For `CC[N+](CC)(CC)CCCNC(=O)C12CC3CC(CC(C3)C1)C2`, the T/C (dose: 25.0 mg/kg/injection, schedule: Q04DX002 (ip), vehicle: saline) was 95 % of control and the T/C (dose: 50.0 mg/kg/injection, schedule: Q04DX002 (ip), vehicle: saline) was 101 % of control.
`CC(=O)c1cccc(NC(=O)Nc2ccc(CCO)cc2)c1` was tested, and the T/C [4] was 95 % of control, the T/C [5] was 95 % of control and the T/C [6] was 100 % of control.
With `CCC[CH2][Sn]([CH2]CCC)([CH2]CCC)[S]C(=S)NCCNC(=S)[S][Sn]([CH2]CCC)([CH2]CCC)[CH2]CCC` the T/C (dose: 0.5 mg/kg/injection, schedule: Q01DX015 (ip), vehicle: carboxymethylcellulose (CMC)) was 101 % of control, the T/C (dose: 1.0 mg/kg/injection, schedule: Q01DX015 (ip), vehicle: carboxymethylcellulose (CMC)) was 103 % of control and the T/C (dose: 2.5 mg/kg/injection, schedule: Q01DX001 (ip), vehicle: saline) was 108 % of control. The T/C (dose: 2.5 mg/kg/injection, schedule: Q01DX015 (ip), vehicle: carboxymethylcellulose (CMC)) was 110 % of control, the T/C (dose: 5.0 mg/kg/injection, schedule: Q01DX001 (ip), vehicle: saline) was 108 % of control and the T/C (dose: 5.0 mg/kg/injection, schedule: Q01DX015 (ip), vehicle: carboxymethylcellulose (CMC)) was 103 % of control. For the same compound, the T/C (dose: 10.0 mg/kg/injection, schedule: Q01DX001 (ip), vehicle: saline) was 101 % of control, the T/C (dose: 10.0 mg/kg/injection, schedule: Q01DX015 (ip), vehicle: carboxymethylcellulose (CMC)) was 113 % of control and the T/C (dose: 20.0 mg/kg/injection, schedule: Q01DX015 (ip), vehicle: carboxymethylcellulose (CMC)) was 101 % of control. For the same compound, the T/C (dose: 30.0 micrograms/kg/injection, schedule: Q01DX015 (ip), vehicle: carboxymethylcellulose (CMC)) was 106 % of control, the T/C (dose: 60.0 micrograms/kg/injection, schedule: Q01DX015 (ip), vehicle: carboxymethylcellulose (CMC)) was 110 % of control and the T/C (dose: 120.0 micrograms/kg/injection, schedule: Q01DX015 (ip), vehicle: carboxymethylcellulose (CMC)) was 102 % of control. The T/C (dose: 240.0 micrograms/kg/injection, schedule: Q01DX015 (ip), vehicle: carboxymethylcellulose (CMC)) was 102 % of control.
In the case of `CC1CN1c1cc(O)c(N2CC2C)cc1O` (configuration not stated), the T/C (dose: 0.25 mg/kg/injection, schedule: Q01DX009 (ip), vehicle: saline) is reported as 100 % of control, the T/C (dose: 0.5 mg/kg/injection, schedule: Q01DX009 (ip), vehicle: saline) is reported as 92 % of control and the T/C (dose: 0.5 mg/kg/injection, schedule: Q01DX Z (ip), vehicle: methylcellulose (MC)) is reported as 110 % of control. The T/C (dose: 0.8 mg/kg/injection, schedule: Q01DX Z (ip), vehicle: methylcellulose (MC)) was 111 % of control, the T/C (dose: 1.0 mg/kg/injection, schedule: Q01DX009 (ip), vehicle: saline) was 118 % of control and the T/C (dose: 1.2 mg/kg/injection, schedule: Q01DX Z (ip), vehicle: carboxymethylcellulose (CMC)) was 115 % of control. The T/C (dose: 1.2 mg/kg/injection, schedule: Q01DX Z (ip), vehicle: methylcellulose (MC)) was 109 % of control and 123 % of control, the T/C (dose: 1.8 mg/kg/injection, schedule: Q01DX Z (ip), vehicle: carboxymethylcellulose (CMC)) was 121 % of control and the T/C (dose: 2.0 mg/kg/injection, schedule: Q01DX009 (ip), vehicle: saline) was 118 % of control. For the same compound, the T/C (dose: 2.7 mg/kg/injection, schedule: Q01DX Z (ip), vehicle: methylcellulose (MC)) was 171 % of control, the T/C (dose: 4.0 mg/kg/injection, schedule: Q01DX Z (ip), vehicle: carboxymethylcellulose (CMC)) was 120 % of control and the T/C (dose: 4.0 mg/kg/injection, schedule: Q01DX Z (ip), vehicle: methylcellulose (MC)) was 109 % of control and 155 % of control and 212 % of control. For the same compound, the T/C (dose: 5.0 mg/kg/injection, schedule: Q01DX009 (ip), vehicle: saline) was 150 % of control, the T/C (dose: 6.0 mg/kg/injection, schedule: Q01DX Z (ip), vehicle: carboxymethylcellulose (CMC)) was 108 % of control and the T/C (dose: 6.0 mg/kg/injection, schedule: Q01DX Z (ip), vehicle: methylcellulose (MC)) was 172 % of control and 180 % of control. The T/C (dose: 9.0 mg/kg/injection, schedule: Q01DX Z (ip), vehicle: methylcellulose (MC)) was 155 % of control and 174 % of control, the T/C (dose: 10.0 mg/kg/injection, schedule: Q01DX009 (ip), vehicle: saline) was 121 % of control and the T/C (dose: 13.5 mg/kg/injection, schedule: Q01DX Z (ip), vehicle: methylcellulose (MC)) was 114 % of control. For the same compound, the T/C (dose: 20.0 mg/kg/injection, schedule: Q01DX009 (ip), vehicle: saline) was 101 % of control and the T/C (dose: 20.0 mg/kg/injection, schedule: Q01DX Z (ip), vehicle: methylcellulose (MC)) was 90 % of control.
In the case of `O=c1c(Cl)c(C(Cl)(Cl)Cl)[nH]c2c(Cl)cc(Cl)cc12`, the T/C (dose: 6.25 mg/kg/injection, schedule: Q01DX009 (ip), vehicle: other) is reported as 93 % of control and the T/C (dose: 12.5 mg/kg/injection, schedule: Q01DX009 (ip), vehicle: other) is reported as 107 % of control.
With `COc1ccc(NC(=O)OCCN(CCOC(=O)Nc2ccc(OC)cc2)Cc2ccccc2)cc1` the T/C [7] was 94 % of control, the T/C [8] was 96 % of control and the T/C [9] was 100 % of control.
For `COc1ccc2cc1Oc1ccc(cc1)CC1c3c(cc(OC)c4c3Oc3cc5c(cc3O4)CCNC5C2)CCN1C` (configuration not stated), the T/C (dose: 100.0 mg/kg/injection, schedule: Q04DX002 (ip), vehicle: Klucel (hydroxypropylcellulose) (HPC)) was 98 % of control, the T/C (dose: 200.0 mg/kg/injection, schedule: Q04DX002 (ip), vehicle: Klucel (hydroxypropylcellulose) (HPC)) was 98 % of control and the T/C (dose: 400.0 mg/kg/injection, schedule: Q04DX002 (ip), vehicle: Klucel (hydroxypropylcellulose) (HPC)) was 91 % of control.
